Some test systems named below: SF-539; IGROV-1; UACC-257; SK-MEL-28; A498; ACHN; SK-MEL-2; LOX IMVI; MOLT-4; OVCAR-3; UACC-62; BT-549; HOP-62; T47D; HT-29; HL-60; NCI-H226; RPMI-8226; MCF7.
Assay in all cases: NCI anticancer screen, dose series, 48 h

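Values below derive from 48-hour exposures of cells grown in 96-well plates, with endpoints linearly interpolated between the two concentrations bracketing the appropriate inhibition level. The concentration for 50% growth inhibition is given as GI50.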 Active and inactive are the calls of the source. Cut-off read from the data, not from the text of the source: active = GI50 up to about 1.1 µM and inactive = higher. Where only a bound is given, the exact number is not on record here.

For `c1ccc([C@@H]2N[C@@]3(CO[Si](c4ccccc4)(c4ccccc4)c4ccccc4)CC[C@H]4CN[C@@H]2[C@H]43)cc1`, the GI50 with SF-539 is 15.3 µM (inactive); in the test on IGROV-1 it was 12.8 µM (inactive); with UACC-257, 14.3 µM (inactive); in the test on SK-MEL-28 it was 14.9 µM (inactive); in the test with A498, 15.3 µM (inactive); in the test with ACHN, 13.7 µM (inactive). The GI50 in the test with SK-MEL-2 is 17.9 µM (inactive); in the test on LOX IMVI it was 10.4 µM (inactive); in the test with MOLT-4, 3.75 µM (inactive); in the test on OVCAR-3 it was 13.8 µM (inactive); in the test with UACC-62 it was 14.3 µM (inactive); with BT-549, 20.9 µM (inactive). Moreover, the GI50 in the test on HOP-62 was 16.6 µM (inactive); with T47D, 4.07 µM (inactive); in the test with HT-29, 2.55 µM (inactive); with HL-60 it was 4.36 µM (inactive); in the test with NCI-H226, 12.4 µM (inactive); with RPMI-8226, 2.76 µM (inactive). The GI50 in the test with MCF7 was 2.99 µM (inactive).

As to `COc1c2c(c(OC)c3c1c(=O)c1ccccc1n3C)OCO2`, the GI50 in the test on SF-539 is 5.31 µM (inactive); with IGROV-1, 7.87 µM (inactive); in the test with UACC-257, > 100 µM (inactive); with SK-MEL-28, 30.5 µM (inactive); in the test with A498, 53.3 µM (inactive); with ACHN, 49.2 µM (inactive). Besides, the GI50 in the test on SK-MEL-2 was > 19.9 µM (inactive); with LOX IMVI, 5.48 µM (inactive); in the test on MOLT-4, 7.85 µM (inactive); in the test on OVCAR-3, 5.51 µM (inactive); in the test on UACC-62 it was 9.06 µM (inactive); with BT-549, 15 µM (inactive). Moreover, the GI50 with HOP-62 is 25.2 µM (inactive); in the test with T47D, 6.7 µM (inactive); in the test on HT-29, 17.5 µM (inactive); in the test on HL-60 it was 3.18 µM (inactive); in the test with NCI-H226 it was > 50.4 µM (inactive); in the test with RPMI-8226, 11.4 µM (inactive). Also, the GI50 in the test with MCF7 was 4.2 µM (inactive).

On to `CC[C@H](C)C(=O)O[C@H]1CCC=C2C=C[C@H](C)[C@H](CC[C@@H]3C[C@@H](O)CC(=O)O3)[C@H]21` [MEVASTATIN], for which the GI50 with SF-539 was 7.35 µM (inactive); with IGROV-1 it was 4.43 µM (inactive); with UACC-257, 50.4 µM (inactive); in the test on SK-MEL-28 it was 60.7 µM (inactive); with A498, 5.43 µM (inactive); with ACHN, 3.88 µM (inactive). Further, the GI50 was 5.77 µM (inactive) in the test on SK-MEL-2; 1.97 µM (inactive) in the test on LOX IMVI; > 47.8 µM (inactive) in the test with MOLT-4; 30.4 µM (inactive) with OVCAR-3; 5.68 µM (inactive) with UACC-62; 4.75 µM (inactive) in the test on BT-549. For the same molecule, the GI50 is > 100 µM (inactive) with HOP-62; > 82.8 µM (inactive) in the test with T47D; 36.7 µM (inactive) in the test on HT-29; 46.6 µM (inactive) in the test on HL-60; 25.4 µM (inactive) in the test with NCI-H226; 20 µM (inactive) with RPMI-8226. Moreover, in the test with MCF7, the GI50 is 20.3 µM (inactive).

For `NC1CC(=O)c2csc(Cl)c21` (configuration not stated), the GI50 in the test with SF-539 is 2.23 µM (inactive); in the test on IGROV-1 it was 15.7 µM (inactive); in the test on UACC-257, 14.9 µM (inactive); with SK-MEL-28, 17.1 µM (inactive); with A498, 17.1 µM (inactive); in the test on ACHN, 5.33 µM (inactive). Also, the GI50 in the test with SK-MEL-2 was 12.9 µM (inactive); in the test on LOX IMVI, 4 µM (inactive); in the test on MOLT-4, 1.48 µM (inactive); in the test with OVCAR-3 it was 6.38 µM (inactive); in the test on UACC-62 it was 10 µM (inactive); with BT-549, 17.7 µM (inactive). Besides, the GI50 is 14.1 µM (inactive) in the test with HOP-62; 3.98 µM (inactive) in the test with T47D; 10.3 µM (inactive) in the test on HT-29; 2.72 µM (inactive) with HL-60; 37 µM (inactive) in the test on NCI-H226; 0.234 µM (active) in the test on RPMI-8226. Also, in the test on MCF7, the GI50 is 17.5 µM (inactive).

For `FC(F)(F)c1ccc2c(c1)nc(-c1ccccc1)n2CC1CCCN2CCCCC12` (configuration not stated), the GI50 with SF-539 was 16.4 µM (inactive); in the test on IGROV-1 it was 18.3 µM (inactive); in the test with UACC-257, 15.9 µM (inactive); with SK-MEL-28, 18.2 µM (inactive); in the test with A498, 22.2 µM (inactive); with ACHN, 19.9 µM (inactive). The GI50 with SK-MEL-2 was 15.3 µM (inactive); in the test with LOX IMVI, 15.4 µM (inactive); in the test with MOLT-4 it was 25.9 µM (inactive); in the test with OVCAR-3, 23.5 µM (inactive); in the test with UACC-62, 16.6 µM (inactive); with BT-549 it was 16.7 µM (inactive). Besides, the GI50 in the test on HOP-62 is 27.5 µM (inactive); in the test with T47D, 20 µM (inactive); with HT-29, 16.1 µM (inactive); with HL-60 it was 14.3 µM (inactive); in the test with NCI-H226, 20.8 µM (inactive); with RPMI-8226 it was 32 µM (inactive). In addition, the GI50 in the test on MCF7 was 17.1 µM (inactive).

In the case of `N#Cc1ccccc1NC(=O)/C(=N\NC(=O)c1ccncc1)C(c1cnc2ccc([N+](=O)[O-])cc2n1)[N+](=O)[O-]` (configuration not stated), the GI50 is > 100 µM (inactive) with SF-539; 95.9 µM (inactive) in the test with IGROV-1; > 100 µM (inactive) in the test with UACC-257; > 100 µM (inactive) in the test on SK-MEL-28; > 100 µM (inactive) in the test with A498; 28 µM (inactive) in the test on ACHN. The GI50 was > 100 µM (inactive) with SK-MEL-2; 84.5 µM (inactive) in the test with LOX IMVI; 80 µM (inactive) with MOLT-4; > 100 µM (inactive) with OVCAR-3; > 100 µM (inactive) in the test with UACC-62; > 100 µM (inactive) with BT-549. The GI50 with HOP-62 is > 100 µM (inactive); in the test on T47D it was > 100 µM (inactive); with HT-29, > 100 µM (inactive); in the test on HL-60 it was > 100 µM (inactive); in the test on NCI-H226, > 100 µM (inactive); in the test on RPMI-8226, 49 µM (inactive). For the same molecule, in the test on MCF7, the GI50 is 80.2 µM (inactive).

`O=C1Nc2ccccc2/C1=C\c1c(-c2ccccc2)nc2n1CCS2`: the GI50 was 18.7 µM (inactive) in the test with SF-539; 23 µM (inactive) with IGROV-1; 19.5 µM (inactive) in the test with UACC-257; 31.2 µM (inactive) in the test with SK-MEL-28; 18.2 µM (inactive) in the test on A498; 23.6 µM (inactive) in the test with ACHN. Also, the GI50 with SK-MEL-2 is 13.3 µM (inactive); with LOX IMVI, 18.3 µM (inactive); with MOLT-4, 25.8 µM (inactive); in the test on OVCAR-3, 15.6 µM (inactive); in the test with UACC-62 it was 13 µM (inactive); in the test on BT-549, 20 µM (inactive). In addition, the GI50 in the test on HOP-62 is 29.2 µM (inactive); in the test on T47D, 18.7 µM (inactive); with HT-29, 19.5 µM (inactive); in the test with HL-60, 18.2 µM (inactive); in the test with RPMI-8226, 22.6 µM (inactive); with MCF7, 12.5 µM (inactive).

As to `Cc1ccc(Nc2nc(=O)[nH]c(=O)[nH]2)cc1N=[N+]=[N-]`, the GI50 with SF-539, in the test with IGROV-1, in the test on UACC-257, in the test with A498, in the test on ACHN and in the test on SK-MEL-2 was > 100 µM (inactive) each time. In addition, the GI50 with LOX IMVI, in the test on MOLT-4, with OVCAR-3, in the test on UACC-62, in the test with BT-549 and in the test with HOP-62 was > 100 µM (inactive) in each case. Also, the GI50 with T47D, in the test on HT-29, in the test on HL-60, with NCI-H226, in the test with RPMI-8226 and in the test with MCF7 was > 100 µM (inactive) throughout.

`O=C(O)c1cc2c(cc1CC(Cc1ccccc1)C(=O)O)CCC2` (configuration not stated): the GI50 in the test with SF-539, in the test with IGROV-1, with UACC-257, in the test on SK-MEL-28, in the test on A498 and in the test on ACHN was > 100 µM (inactive) each time. For the same molecule, the GI50 in the test with SK-MEL-2, in the test with LOX IMVI, in the test with MOLT-4, in the test on OVCAR-3, in the test with BT-549 and with HOP-62 was > 100 µM (inactive) throughout. Further, the GI50 in the test on T47D, in the test on HT-29, in the test with HL-60, in the test with NCI-H226, in the test with RPMI-8226 and with MCF7 was > 100 µM (inactive) in each case.

Turning to `CC(O)(CNS(=O)(=O)c1ccccc1)c1ccccc1` (configuration not stated), the GI50 in the test with IGROV-1, with SK-MEL-28, with A498, with ACHN, with SK-MEL-2 and with LOX IMVI was > 100 µM (inactive) throughout. The GI50 in the test with OVCAR-3, in the test with UACC-62, in the test on BT-549, with HOP-62, in the test with T47D and in the test with HT-29 was > 100 µM (inactive) each time. Further, the GI50 in the test with HL-60, in the test with NCI-H226, in the test with RPMI-8226 and in the test on MCF7 was > 100 µM (inactive) each time.

Turning to `COc1cc2oc3c(c(=O)c2c(O)c1/C=C/C(C)C)CCC(C)(C)Oc1cc(O)ccc1-3`, the GI50 in the test on SF-539 was 13.1 µM (inactive); in the test on IGROV-1, 17.7 µM (inactive); in the test with UACC-257 it was 14.3 µM (inactive); in the test on SK-MEL-28 it was 14.8 µM (inactive); in the test on A498, 19.1 µM (inactive); in the test on ACHN, 14.1 µM (inactive). In addition, the GI50 in the test on SK-MEL-2 is 16.6 µM (inactive); with LOX IMVI, 9.14 µM (inactive); in the test with MOLT-4, 13 µM (inactive); in the test on OVCAR-3 it was 15.6 µM (inactive); with UACC-62, 15.6 µM (inactive); with BT-549, 17.1 µM (inactive). For the same molecule, the GI50 in the test with HOP-62 was 15.4 µM (inactive); in the test with T47D, 33.9 µM (inactive); in the test with HT-29 it was 7.13 µM (inactive); with HL-60, 13.1 µM (inactive); in the test on RPMI-8226, 20 µM (inactive); in the test with MCF7 it was 13.3 µM (inactive).

Source of the values: ChEMBL document CHEMBL1201862, “PubChem BioAssay data set” (2004).
